Reference: ChEMBL document CHEMBL1949630, “Discovery of benzodihydroisofurans as novel, potent, bioavailable and brain-penetrant prolylcarboxypeptidase inhibitors” (Bioorg Med Chem Lett, 2012)
Values belong to the molecule of their own block, whether it stands above or below them. The source made the active and inactive calls. The calls are words filed in the database; no cut-off is given here.

Experiments:
[1] = molecular target: T1, Lysosomal Pro-X carboxypeptidase (Mus musculus, UniProt Q7TMR0); assay: Inhibition of mouse PrCP
T1 sequence (Q7TMR0 whole entry): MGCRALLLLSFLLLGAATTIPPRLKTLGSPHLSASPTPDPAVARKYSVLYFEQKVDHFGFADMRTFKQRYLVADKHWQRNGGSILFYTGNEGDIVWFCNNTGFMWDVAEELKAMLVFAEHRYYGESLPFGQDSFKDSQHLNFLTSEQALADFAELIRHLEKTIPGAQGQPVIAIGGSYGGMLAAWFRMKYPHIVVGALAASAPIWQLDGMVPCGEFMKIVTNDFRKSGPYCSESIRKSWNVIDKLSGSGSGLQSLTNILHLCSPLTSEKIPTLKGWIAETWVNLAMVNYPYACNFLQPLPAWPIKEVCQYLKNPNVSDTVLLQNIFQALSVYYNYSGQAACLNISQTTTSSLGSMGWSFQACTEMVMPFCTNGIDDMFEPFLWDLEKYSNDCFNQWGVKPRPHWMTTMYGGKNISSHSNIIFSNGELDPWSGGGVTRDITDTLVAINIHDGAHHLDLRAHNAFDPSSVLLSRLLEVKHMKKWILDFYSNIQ

[2] = molecular target: T1, Lysosomal Pro-X carboxypeptidase; assay: Inhibition of PrCP in mouse plasma assessed as angiotensin 3 cleavage by whole serum shift assay
[3] = Oral bioavailability in C57BL/6 mouse at 2 mg/kg by LC/MS/MS analysis; format: ADME, organism-based; conditions: in vivo
[4] = Clearance in C57BL/6 mouse at 1 mg/kg, iv and 2 mg/kg, po by LC/MS/MS analysis; format: ADME, organism-based; conditions: in vivo
[5] = Volume of distribution at steady state in C57BL/6 mouse at 1 mg/kg, iv and 2 mg/kg, po by LC/MS/MS analysis; format: ADME, organism-based; conditions: in vivo, read-out: Vdss
[6] = Half life in C57BL/6 mouse at 1 mg/kg, iv and 2 mg/kg, po by LC/MS/MS analysis; format: ADME, organism-based; conditions: in vivo
[7] = system: Mus musculus; assay: Dose normalized AUC in C57BL/6 mouse at 2 mg/kg by LC/MS/MS analysis; format: ADME, organism-based; set-up: dose 2 mg/kg; conditions: in vivo
[8] = molecular target: T2, Lysosomal Pro-X carboxypeptidase (Mus musculus) (UniProt Q7TMR0); assay: Inhibition of mouse PrCP in qd for 2 days po dosed established diet-induced obese C57BL/6 mouse heat inactivated plasma; format: organism-based
T2 sequence (whole entry): T1 sequence (Q7TMR0 whole entry)

[9] = Fraction unbound in human plasma; format: ADME, cell-free
[10] = Fraction unbound in mouse plasma; format: ADME, cell-free
[11] = Oral bioavailability in rat at 2 mg/kg by LC/MS/MS analysis; format: ADME, organism-based; conditions: in vivo
[12] = Oral bioavailability in dog at 2 mg/kg by LC/MS/MS analysis; format: ADME, organism-based, Canis lupus familiaris; conditions: in vivo
[13] = Clearance in rat at 1 mg/kg, iv and 2 mg/kg, po by LC/MS/MS analysis; format: ADME, organism-based; conditions: in vivo
[14] = Clearance in dog at 1 mg/kg, iv and 2 mg/kg, po by LC/MS/MS analysis; format: ADME, organism-based, Canis lupus familiaris; conditions: in vivo
[15] = Volume of distribution at steady state in rat at 1 mg/kg, iv and 2 mg/kg, po by LC/MS/MS analysis; format: ADME, organism-based; conditions: in vivo, read-out: Vdss
[16] = Volume of distribution at steady state in dog at 1 mg/kg, iv and 2 mg/kg, po by LC/MS/MS analysis; format: ADME, organism-based, Canis lupus familiaris; conditions: in vivo, read-out: Vdss
[17] = Half life in rat at 1 mg/kg, iv and 2 mg/kg, po by LC/MS/MS analysis; format: ADME, organism-based; conditions: in vivo
[18] = Half life in dog at 1 mg/kg, iv and 2 mg/kg, po by LC/MS/MS analysis; format: ADME, organism-based, Canis lupus familiaris; conditions: in vivo
[19] = system: Rattus norvegicus; assay: Dose normalized AUC in rat at 2 mg/kg by LC/MS/MS analysis; format: ADME, organism-based; set-up: dose 2 mg/kg; conditions: in vivo
[20] = system: Canis familiaris; assay: Dose normalized AUC in dog at 2 mg/kg by LC/MS/MS analysis; format: ADME, organism-based, Canis lupus familiaris; set-up: dose 2 mg/kg; conditions: in vivo
[21] = Ratio of drug level in brain to plasma in wild type CF1 mouse at 3 mg/kg, po after 4 hrs; format: ADME, organism-based; set-up: dose 3 mg/kg, route oral; conditions: brain and plasma, read-out: BPR
[22] = Ratio of drug level in brain to plasma in p-gp-/- mouse at 3 mg/kg, po after 4 hrs; format: ADME, organism-based; set-up: dose 3 mg/kg, route oral; conditions: brain and plasma, read-out: BPR
[23] = Drug uptake in established diet-induced obese C57BL/6 mouse blood at 3 mg/kg, po qd for 2 days; format: ADME, organism-based; set-up: dose 3 mg/kg, route oral; conditions: read-out: Drug uptake
[24] = Drug uptake in established diet-induced obese C57BL/6 mouse blood at 10 mg/kg, po qd for 2 days; format: ADME, organism-based; set-up: dose 10 mg/kg, route oral; conditions: read-out: Drug uptake
[25] = Drug uptake in established diet-induced obese C57BL/6 mouse blood at 30 mg/kg, po qd for 2 days; format: ADME, organism-based; set-up: dose 30 mg/kg, route oral; conditions: read-out: Drug uptake
[26] = Plasma concentration in established diet-induced obese C57BL/6 mouse at 3 mg/kg, po qd for 2 days; format: ADME, organism-based; set-up: dose 3 mg/kg, route oral
[27] = Plasma concentration in established diet-induced obese C57BL/6 mouse at 10 mg/kg, po qd for 2 days; format: ADME, organism-based; set-up: dose 10 mg/kg, route oral
[28] = Plasma concentration in established diet-induced obese C57BL/6 mouse at 30 mg/kg, po qd for 2 days; format: ADME, organism-based; set-up: dose 30 mg/kg, route oral
[29] = Drug uptake in established diet-induced obese C57BL/6 mouse brain at 3 mg/kg, po qd for 2 days; format: ADME, organism-based; set-up: dose 3 mg/kg, route oral; conditions: read-out: Drug uptake
[30] = Drug uptake in established diet-induced obese C57BL/6 mouse brain at 10 mg/kg, po qd for 2 days; format: ADME, organism-based; set-up: dose 10 mg/kg, route oral; conditions: read-out: Drug uptake
[31] = Drug uptake in established diet-induced obese C57BL/6 mouse brain at 30 mg/kg, po qd for 2 days; format: ADME, organism-based; set-up: dose 30 mg/kg, route oral; conditions: read-out: Drug uptake
[32] = molecular target: T2, Lysosomal Pro-X carboxypeptidase (Mus musculus); assay: Inhibition of mouse PrCP in 3 mg/kg, po administered qd for 2 days established diet-induced obese C57BL/6 mouse heat inactivated plasma; format: organism-based; set-up: dose 3 mg/kg; conditions: at 3 mg/kg
[33] = molecular target: T2, Lysosomal Pro-X carboxypeptidase (Mus musculus); assay: Inhibition of mouse PrCP in 10 mg/kg, po administered qd for 2 days established diet-induced obese C57BL/6 mouse heat inactivated plasma; format: organism-based; set-up: dose 10 mg/kg; conditions: at 10 mg/kg
[34] = molecular target: T2, Lysosomal Pro-X carboxypeptidase (Mus musculus); assay: Inhibition of mouse PrCP in 30 mg/kg, po administered qd for 2 days established diet-induced obese C57BL/6 mouse heat inactivated plasma; format: organism-based; set-up: dose 30 mg/kg; conditions: at 30 mg/kg
[35] = system: Mus musculus; assay: Antiobesity activity in established diet-induced obese C57BL/6 mouse assessed as reduction of body weight at 30 mg/kg, po qd for 5 days; format: functional, organism-based; set-up: dose 30 mg/kg
[36] = system: Mus musculus; assay: Antiobesity activity in PrCP knockout mouse assessed as reduction of body weight at 30 mg/kg, po qd for 5 days; format: functional, organism-based; set-up: dose 30 mg/kg
[37] = Plasma concentration in established diet-induced obese wild type C57BL/6 mouse at 30 mg/kg, po qd for 5 days measured on day 6; format: ADME, organism-based; set-up: dose 30 mg/kg, route oral
[38] = Plasma concentration in PrCP knockout mouse at 30 mg/kg, po qd for 5 days measured on day 6; format: ADME, organism-based; set-up: dose 30 mg/kg, route oral
[39] = Drug uptake in established diet-induced obese wild type C57BL/6 mouse brain at 30 mg/kg, po qd for 5 days measured on day 6; format: ADME, organism-based; set-up: dose 30 mg/kg, route oral; conditions: read-out: Drug uptake
[40] = Drug uptake in PrCP knockout mouse brain at 30 mg/kg, po qd for 5 days measured on day 6; format: ADME, organism-based; set-up: dose 30 mg/kg, route oral; conditions: read-out: Drug uptake
[41] = molecular target: T2, Lysosomal Pro-X carboxypeptidase (Mus musculus); assay: Inhibition of mouse PrCP in 30 mg/kg, po qd for 5 days established diet-induced obese wild type C57BL/6 mouse heat inactivated plasma measured on day 6; format: organism-based; set-up: dose 30 mg/kg; conditions: at 30 mg/kg
[42] = molecular target: T2, Lysosomal Pro-X carboxypeptidase (Mus musculus); assay: Inhibition of mouse PrCP in 30 mg/kg, po qd for 5 days established diet-induced obese wild type C57BL/6 mouse heat inactivated brain homogenates measured on day 6; format: organism-based; set-up: dose 30 mg/kg; conditions: at 30 mg/kg

IC50 [1]: 1 nM
IC50 [2]: > 1000 nM
bioavailability [3]: 53%
clearance [4]: 8.1 mL/min/kg
Vd [5]: 4.4 L/kg
half-life [6]: 7 h
AUC/dose [7]: 2.16 µM·kg·h/mg
Structure (SMILES): FC(F)(F)Oc1ccc(CN2CCC3(CC2)OC(c2cc(Cl)cc(Cl)c2)c2ccccc23)cc1 (stereo not given)

inhibition [8]: Dose-dependent effect
IC50 [1]: 0.18 nM
IC50 [2]: 23 nM
fraction unbound [9]: < 0.0006
fraction unbound [10]: < 0.0006
bioavailability [3]: 35%
bioavailability [11]: 60%
bioavailability [12]: 88%
clearance [4]: 45 mL/min/kg
clearance [13]: 11 mL/min/kg
clearance [14]: 5.9 mL/min/kg
Vd [5]: 20 L/kg
Vd [15]: 5.9 L/kg
Vd [16]: 5.5 L/kg
half-life [6]: 6.7 h
half-life [17]: 8.9 h
half-life [18]: 14 h
AUC/dose [7]: 0.28 µM·kg·h/mg
AUC/dose [19]: 1.8 µM·kg·h/mg
AUC/dose [20]: 5 µM·kg·h/mg
Kp at 4 h [21]: 0.94
Kp at 4 h [22]: 1.9
concentration at 48 h [23]: 80 nM
concentration at 48 h [24]: 280 nM
concentration at 48 h [25]: 590 nM
concentration at 48 h [26]: 50 nM
concentration at 48 h [27]: 240 nM
concentration at 48 h [28]: 520 nM
concentration at 48 h [29]: 30 nM
concentration at 48 h [30]: 110 nM
concentration at 48 h [31]: 520 nM
inhibition [32]: 53%
inhibition [33]: 82%
inhibition [34]: 93%
concentration at 120 h [37]: 1420 nM
concentration at 120 h [38]: 1570 nM
concentration at 120 h [39]: 690 nM
concentration at 120 h [40]: 820 nM
inhibition [41]: 88%
inhibition [42]: 61%
Structure (SMILES): FC(F)(F)Oc1ccc(CN2CCC3(CC2)OC(c2cc(Cl)ccn2)c2ccccc23)cc1 (stereo not given)
Activity [35]: inactive
Activity [36]: inactive

IC50 [1]: 5.8 nM
bioavailability [3]: 47%
clearance [4]: 74 mL/min/kg
Vd [5]: 28 L/kg
half-life [6]: 5 h
AUC/dose [7]: 0.23 µM·kg·h/mg
Structure (SMILES): FC(F)(F)Oc1ccc(CN2CCC3(CC2)OC(c2cc(Cl)ccn2)c2cccnc23)cc1 (racemic)
